# ± gives the expanded uncertainty stated by the source.
# Assays:
# [1] = 101.33 kPa, Liquid, Vibrating tube method
# [2] = refractive index (Na D-line) (dimensionless); conditions: 298.15 K; 101.33 kPa; Liquid; Standard Abbe refractometry
compound,measurement,setting,value
CCCCn1cc[n+](C)c1.F[P-](F)(F)(F)(F)F [1-butyl-3-methylimidazolium hexafluorophosphate],mass density,[1]; 293.15 K,1371.4 ± 1.2 kg/m3
same,mass density,[1]; 298.15 K,1367.23 ± 1.1 kg/m3
same,refractive index,[2],1.40926 ± 0.0006
